Data taken from patent publication US20240294509A1, “PYRIDAZINONE COMPOUND AS PARP7 INHIBITOR” (Euregen Biopharma Co., Ltd., priority 2021, published 2024).

Key:
[1] = tested on: NCI-H1373 cells; experiment: Inhibitory effect on the proliferation of NCI-H1373 cells (CellTiter-Glo); format: cell-based; settings: Homo sapiens, 144 h, 6 days treatment
Source text: 1. Experimental Principle: NCI-H1373 cells are a type of lung adenocarcinoma cells that overexpress PARP7.
2. Experimental Materials: NCI-H1373 cells were obtained from Nanjing Cobioer Biosciences Co., Ltd. CellTiter-Glo® (cell viability chemiluminescent assay reagent) was purchased from Promega (Catalog No. G7571). RPMI-1640 medium was obtained from ATCC (Catalog No. 30-2001). RPMI-1640 medium, penicillin/streptomycin antibiotics were purchased from WISENT. Fetal bovine serum was obtained from Biosera. The Nivo multimode reader was procured from PerkinElmer.
3. Experimental Method: NCI-H1373 cells were seeded in a white 96-well plate with 80 μL of cell suspension per well, containing 3000 NCI-H1373 cells. The cell plate was incubated overnight in a carbon dioxide (CO2) incubator.
The test compounds were serially diluted 5-fold to the 9th concentration, ranging from 2 mmol/L to 5.12 nmol/L, for a duplicate assay. 78 μL of culture medium was added to the intermediate plate, and then, according to the corresponding positions, 2 μL of each gradient-diluted compound was transferred to the intermediate plate. After thorough mixing, 20 μL of the compound solution was transferred to the cell plate. The compound concentration range in the cell plate ranged from 10 μmol/L to 0.0256 nmol/L. The cell plate was incubated in a CO2 incubator for 6 days.
Another cell plate was prepared, and the signal values were read on the day of dosing to obtain the maximum value referred to as Max in the following equation for data analysis. 25 μL of cell viability chemiluminescent assay reagent was added to each well of this cell plate, and it was incubated at room temperature for 10 minutes to stabilize the luminescent signal. Readings were taken using a multimode reader.
After 6 days of treatment, 25 μL of cell viability chemiluminescent assay reagent was added to each well of the cell plate, and it was incubated at room temperature for 10 minutes to stabilize the luminescent signal. Readings were taken using a multimode reader.
The IC50 value was determined by four-parameter curve fitting (obtained by using the “log(inhibitor) vs. response—Variable slope” model in GraphPad Prism).

[2] = Pharmacokinetic properties in SD rats after single intravenous injection and oral administration; format: in vivo; settings: SD male rats
Source text: 1. Test purpose: to determine the pharmacokinetic characteristics of some of the example compound of the present invention in SD rats after single intravenous injection(IV) and oral administration(PO) by LC-MS/MS method.
2. Test material: the test drug is self-made from the example compounds of the present invention; Positive control compound RBN2397 purchased from Shanghai BioChemPartner Biotechnology Co., Ltd. SD male rats were obtained from the Laboratory Animal Management Department of Shanghai Family Planning Research Institute. Animal production license number (SCXK (Shanghai) 2018-0006).
Preparation of 0.5% methyl cellulose: 5 g of methyl cellulose were weighed and dissolved in 1000 mL of purified water.
Preparation of oral formulation: A required amount of test compound was weighed and dissolved in 0.5% methyl cellulose solution to obtain a suspension or solution of 0.5 mg/mL or 1.0 mg/mL.
Preparation of intravenous injection formulation: A required amount of test compound was weighed, and dissolved in 0.5 mL of dimethyl sulfoxide to prepare a solution of 4 mg/mL. 0.25 mL of the above solution was added into 0.5 mL of polyethylene glycol 15 hydroxystearate (solutol) and 4.25 mL of physiological saline to obtain a solution of 0.2 mg/mL.
Administration: SD male rats were orally administered (PO) after fasting overnight, and fed 4 hours after administration.
Sample Collection: blood was collected through jugular vein or other suitable vein, and 0.2 mL of blood was collected at each time point. Samples were placed into tubes containing ethylenediamine tetraacetic acid dipotassium salt and kept on ice before centrifugation. Within 1 hour after blood collection, the blood samples were centrifuged at 2-8° C. and 6800 g for 6 minutes and stored at −80° C. The time point for blood collection was 0.083, 0.25, 0.5, 1, 2, 4, 8 and 24 hours after intravenous administration, and 0.25, 0.5, 1, 2, 4, 6, 8 and 24 hours after oral administration.
The intravenous dosage was 1 mg/kg, and the pharmacokinetic parameters for oral administration were standardized to a 1 mg/kg dose.

[3] = target: PARP7 (Homo sapiens (Human), UniProt Q7Z3E1); experiment: biochemical
Sequence of PARP7 (Q7Z3E1 whole entry): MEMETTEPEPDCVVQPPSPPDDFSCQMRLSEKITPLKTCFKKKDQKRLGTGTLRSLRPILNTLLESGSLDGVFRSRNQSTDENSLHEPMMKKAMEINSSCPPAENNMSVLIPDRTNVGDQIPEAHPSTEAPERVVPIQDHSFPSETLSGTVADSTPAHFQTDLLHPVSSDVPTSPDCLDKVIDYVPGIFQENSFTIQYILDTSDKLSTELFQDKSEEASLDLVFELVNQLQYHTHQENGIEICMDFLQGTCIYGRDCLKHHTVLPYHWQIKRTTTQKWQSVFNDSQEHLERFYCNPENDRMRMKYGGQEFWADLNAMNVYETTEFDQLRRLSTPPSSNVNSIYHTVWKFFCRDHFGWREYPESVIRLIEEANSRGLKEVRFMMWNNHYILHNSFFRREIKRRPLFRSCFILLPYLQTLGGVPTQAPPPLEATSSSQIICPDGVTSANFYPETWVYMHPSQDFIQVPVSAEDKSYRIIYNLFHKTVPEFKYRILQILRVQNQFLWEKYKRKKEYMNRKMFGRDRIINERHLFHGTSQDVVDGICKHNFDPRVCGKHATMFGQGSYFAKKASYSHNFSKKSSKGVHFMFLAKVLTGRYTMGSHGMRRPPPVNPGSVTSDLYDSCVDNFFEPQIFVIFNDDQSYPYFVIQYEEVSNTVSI
Protocol: (§1) Experimental Principle: The inhibitory effect of the test substance on the enzymatic activity of PARP1/7 is assessed by using an Enzyme-Linked Immunosorbent Assay (ELISA).
(§2) (1) Pre-coating: Add 100 μL of a PBS buffer (10 mM NaH2PO4, 10 mM Na2HPO4, 150 mM NaCl, pH 7.4) containing 20 g/mL of histone to each well of a 96-well plate, and incubate at 4° C. overnight.
(§3) (3) Add 5 μL of the test substance or solvent to each well.
(§4) (4) Add 20 μL of(PARP1 or PARP7 (50 ng/well), and incubate at 30° C. for 1 hour.
(§5) (5) Add 50 μL of streptavidin-HRP to the reaction mixture, and incubate at 30° C. for 30 minutes.
(§6) (6) Finally, add 100 μL of a citrate buffer containing H2O2 and luminol (0.1 M, pH 5.4), and measure the luminescent signal using a microplate reader (Molecular Devices SpectraMax M5).
(§7) (7) Calculate the inhibition rate of PARP1 or PARP7 enzyme activity as [(control group−treatment group)/control group]×10000. Fit the dose-response data with standard dilutions using Prism GraphPad software and calculate the concentration required to achieve 5000 inhibition of PARP1 or PARP7 enzyme activity (IC50).

[4] = target: PARP1 (Homo sapiens (Human), UniProt P09874); experiment: biochemical
Sequence of PARP1 (P09874 whole entry): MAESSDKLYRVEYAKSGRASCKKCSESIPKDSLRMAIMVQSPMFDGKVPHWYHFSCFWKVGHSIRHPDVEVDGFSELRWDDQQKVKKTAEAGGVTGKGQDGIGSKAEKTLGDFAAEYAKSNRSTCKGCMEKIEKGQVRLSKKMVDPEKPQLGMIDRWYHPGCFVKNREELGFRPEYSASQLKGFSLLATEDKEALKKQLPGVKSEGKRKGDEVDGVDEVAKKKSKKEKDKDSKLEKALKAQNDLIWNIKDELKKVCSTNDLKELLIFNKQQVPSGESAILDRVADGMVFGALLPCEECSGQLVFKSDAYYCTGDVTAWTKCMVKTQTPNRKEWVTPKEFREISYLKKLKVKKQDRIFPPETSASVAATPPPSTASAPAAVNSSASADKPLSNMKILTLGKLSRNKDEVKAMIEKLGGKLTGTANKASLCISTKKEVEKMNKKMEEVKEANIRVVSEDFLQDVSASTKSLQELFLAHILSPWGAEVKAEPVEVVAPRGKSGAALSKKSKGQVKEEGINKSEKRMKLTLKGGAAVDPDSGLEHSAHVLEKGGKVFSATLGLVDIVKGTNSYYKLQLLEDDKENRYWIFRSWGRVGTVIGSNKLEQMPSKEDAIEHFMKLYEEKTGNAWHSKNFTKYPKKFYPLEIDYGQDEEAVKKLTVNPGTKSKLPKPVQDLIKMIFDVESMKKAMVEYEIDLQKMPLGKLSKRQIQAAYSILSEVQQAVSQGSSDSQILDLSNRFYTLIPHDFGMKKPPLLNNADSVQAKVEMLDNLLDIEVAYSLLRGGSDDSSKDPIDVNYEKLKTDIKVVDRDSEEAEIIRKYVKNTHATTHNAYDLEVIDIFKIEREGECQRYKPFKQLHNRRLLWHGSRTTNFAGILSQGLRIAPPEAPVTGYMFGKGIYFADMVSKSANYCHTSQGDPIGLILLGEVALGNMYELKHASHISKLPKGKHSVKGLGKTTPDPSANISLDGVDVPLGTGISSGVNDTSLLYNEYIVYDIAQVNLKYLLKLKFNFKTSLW
Protocol: as §1, §2, §3, §4, §5, §6, §7

[5] = rat, plasma, Intravenous injection, 1 mg/kg
[6] = rat, plasma, Oral gavage, standardized to a 1 mg/kg dose

- IC50 [1]: 0.0736 µM
- F ([2]; Oral gavage, oral bioavailability): 21.18%
- AUC(0-inf) [2, 5]: 482 ng·h/mL
- Cmax [2, 5]: 1210 ng/mL
- clearance [2, 5]: 36.9 mL/min/kg
- half-life [2, 5]: 30.6 min
- AUC(0-inf) [2, 6]: 111 ng·h/mL
- Cmax [2, 6]: 40.2 ng/mL
- IC50 [3]: 0.0034 µM
- IC50 [4]: 0.816 µM
Compound: O=C(CC[C@@H]1C[C@@H](Oc2ccccc2)CN1c1cc(C(F)(F)F)c(=O)[nH]n1)N1CCN(c2ncc(C(F)(F)F)cn2)CC1 [Compound 21]
